From article PMC4274187 (Bioorganic & medicinal chemistry, 2014)

Experiments:
[1] = target: dopamine transporter (DAT) (Mus musculus, UniProt Q61327); assay: DAT binding, [125I]RTI-121, mouse striatal membranes; conditions: for inhibition at 10 µM: read-out: DAT % Inh.
[2] = tested on: norepinephrine transporter; conditions: cited from earlier work
σ1 receptors = conditions: read-out: apparent affinity for σ1 receptors; more recent determination; cited from earlier work
[3] = target: vesicular acetylcholine transporter; conditions: read-out: vesicular acetylcholine transporter Ki; secondary interaction; cited from earlier work
[4] = target: serotonin transporter (SERT) (Mus musculus, UniProt Q60857); assay: SERT binding, [3H]paroxetine, mouse whole brain membranes; conditions: ratio of DAT and SERT Ki
Chain of serotonin transporter (SERT) (Q60857 whole entry): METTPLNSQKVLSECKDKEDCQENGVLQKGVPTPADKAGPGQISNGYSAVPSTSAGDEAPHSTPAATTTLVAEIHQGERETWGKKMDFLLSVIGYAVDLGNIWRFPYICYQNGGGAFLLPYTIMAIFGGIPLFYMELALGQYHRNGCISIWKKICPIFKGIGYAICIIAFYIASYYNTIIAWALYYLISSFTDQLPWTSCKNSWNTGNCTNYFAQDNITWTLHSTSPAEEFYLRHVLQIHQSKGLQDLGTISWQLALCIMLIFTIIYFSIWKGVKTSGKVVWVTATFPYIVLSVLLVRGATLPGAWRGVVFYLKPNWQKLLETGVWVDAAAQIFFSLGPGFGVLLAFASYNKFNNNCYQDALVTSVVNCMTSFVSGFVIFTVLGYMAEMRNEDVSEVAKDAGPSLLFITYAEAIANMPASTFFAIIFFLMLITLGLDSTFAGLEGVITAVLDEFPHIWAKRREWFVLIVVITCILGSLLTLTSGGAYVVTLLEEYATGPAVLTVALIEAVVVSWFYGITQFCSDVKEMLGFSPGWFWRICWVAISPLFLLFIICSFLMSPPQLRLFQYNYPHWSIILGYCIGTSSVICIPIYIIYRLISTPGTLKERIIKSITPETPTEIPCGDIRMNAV

Chain of dopamine transporter (DAT) (Q61327 whole entry): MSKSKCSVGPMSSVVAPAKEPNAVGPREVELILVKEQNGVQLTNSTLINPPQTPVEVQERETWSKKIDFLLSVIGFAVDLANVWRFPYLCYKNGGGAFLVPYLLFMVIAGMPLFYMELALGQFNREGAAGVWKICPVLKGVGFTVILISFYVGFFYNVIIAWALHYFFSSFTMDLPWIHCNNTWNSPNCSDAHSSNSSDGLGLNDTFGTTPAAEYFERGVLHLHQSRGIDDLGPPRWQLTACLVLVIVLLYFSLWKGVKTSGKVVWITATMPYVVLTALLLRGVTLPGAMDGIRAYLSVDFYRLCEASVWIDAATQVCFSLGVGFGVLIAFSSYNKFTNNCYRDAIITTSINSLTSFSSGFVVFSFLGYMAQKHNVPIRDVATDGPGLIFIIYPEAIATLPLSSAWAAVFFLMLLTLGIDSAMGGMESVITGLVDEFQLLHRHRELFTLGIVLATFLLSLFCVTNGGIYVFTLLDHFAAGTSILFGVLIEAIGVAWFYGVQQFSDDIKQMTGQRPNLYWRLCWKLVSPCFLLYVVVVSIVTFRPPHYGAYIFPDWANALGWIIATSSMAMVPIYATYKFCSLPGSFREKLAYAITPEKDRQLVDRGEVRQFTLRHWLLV

| inhibition at 10 µM [1] | Ki [1] | Compound | further results |
| --- | --- | --- | --- |
| 19% |  | COc1cc(CCN2CCN(CCCc3ccccc3)CC2)ccc1OCCF [FE-SA4503] |  |
|  | ~2 µM | CCCOc1ccc(CCN2CCN(CCCc3ccccc3)CC2)cc1OC [compound 1, 1-(3-methoxy-4-propoxyphenethyl)-4-(3-phenylpropyl)piperazine] |  |

Further lines, the compound ahead of its results:

| Compound | inhibition at 10 µM [1] | Ki [1] | further results |
| --- | --- | --- | --- |
| Fc1ccc(C(OCCN2CCN(CCCc3ccccc3)CC2)c2ccc(F)cc2)cc1 [GBR 12909] |  |  | affinity for the norepinephrine transporter [2]: > 1000 nM; Ki (σ1 receptors): 0.0508 µM |
| COc1ccc(CCN2CCN(CCCc3ccccc3)CC2)cc1OC [SA4503, 1-[2-(3,4-dimethoxyphenyl)ethyl]-4-(3-phenylpropyl)piperazine] | 23% | 12.7 ± 0.832 µM | Ki [3]: 0.05 µM; higher affinity for SERT over DAT [4]: 16 fold |
| COc1cc(CCN2CCN(CCCc3ccccc3)CC2)ccc1OCc1ccccc1 [compound 4, 1-(4-(benzyloxy)-3-methoxyphenethyl)-4-(3-phenylpropyl)piperazine] |  |  | higher DAT affinity than SA4503 ([1]; relative to parent SA4503): over 100 fold |
| c1ccc(CCCN2CCN(CCc3ccc4c(c3)OCO4)CC2)cc1 [compound 7, 1-(3,4-methylenedioxyphenethyl)-4-(3-phenylpropyl)piperazine] |  | ~2 µM |  |
